Results as given in ChEMBL document CHEMBL1201862, “PubChem BioAssay data set” (2004).
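Results reflect a 48-hour exposure of cells in 96-well plates to compound at five concentrations. Here, GI50 denotes the concentration required for 50% inhibition of growth.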 Active and inactive are the calls of the source. Rule as the data show it: active = GI50 up to about 1.1 µM and inactive = higher.

How the values were obtained:
Assay in all cases: DTP human tumour cell line panel, 48 h
NCI-H226 = test system: NCI-H226
KM12 = test system: KM12
SF-268 = test system: SF-268
TK-10 = test system: TK-10
Hs-578T = test system: Hs-578T
SK-MEL-28 = test system: SK-MEL-28
RXF 393 = test system: RXF 393
T47D = test system: T47D
SW-620 = test system: SW-620
CAKI-1 = test system: CAKI-1
LOX IMVI = test system: LOX IMVI
NCI/ADR-RES = test system: NCI/ADR-RES
MOLT-4 = test system: MOLT-4
SR = test system: SR
PC-3 = test system: PC-3
SF-539 = test system: SF-539
HCC 2998 = test system: HCC 2998
OVCAR-8 = test system: OVCAR-8
NCI-H460 = test system: NCI-H460
SNB-19 = test system: SNB-19

| Structure (SMILES) | GI50 (NCI-H226) | GI50 (KM12) | GI50 (SF-268) | GI50 (TK-10) | GI50 (Hs-578T) | GI50 (SK-MEL-28) | GI50 (RXF 393) | GI50 (T47D) | GI50 (SW-620) | GI50 (CAKI-1) | GI50 (LOX IMVI) | GI50 (NCI/ADR-RES) | GI50 (MOLT-4) | GI50 (SR) | GI50 (PC-3) | GI50 (SF-539) | GI50 (HCC 2998) | GI50 (OVCAR-8) | GI50 (NCI-H460) | GI50 (SNB-19) |
| --- | --- | --- | --- | --- | --- | --- | --- | --- | --- | --- | --- | --- | --- | --- | --- | --- | --- | --- | --- | --- |
| C=C1[C@@H](C)[C@H]2[C@H](Cc3ccccc3)NC(=O)[C@]23OC(=O)/C=C/[C@H](O)CCC[C@@H](C)C/C=C/[C@H]3[C@@H]1O | 1.18 µM (inactive) | 53.3 µM (inactive) | 2.55 µM (inactive) | 4.06 µM (inactive) | 5.89 µM (inactive) | 12.8 µM (inactive) | 0.94 µM (active) | 2.92 µM (inactive) | 23.2 µM (inactive) | 0.233 µM (active) | 0.486 µM (active) | 20.3 µM (inactive) | 4.04 µM (inactive) | > 100 µM (inactive) | 3.76 µM (inactive) | 0.465 µM (active) | 50 µM (inactive) | 5.43 µM (inactive) | 2.62 µM (inactive) | 5.66 µM (inactive) |
| N=C(N)NS(=O)(=O)c1ccc(NC(=O)c2ccc3nc4ccccc4c(Nc4ccc(S(=O)(=O)N=C(N)N)cc4)c3c2)cc1 | > 100 µM (inactive) | > 100 µM (inactive) | > 100 µM (inactive) | > 100 µM (inactive) | > 100 µM (inactive) | > 100 µM (inactive) | > 100 µM (inactive) | > 100 µM (inactive) | > 100 µM (inactive) | > 100 µM (inactive) | 61.8 µM (inactive) | > 100 µM (inactive) | > 100 µM (inactive) | > 100 µM (inactive) | > 100 µM (inactive) | > 100 µM (inactive) | > 100 µM (inactive) | > 100 µM (inactive) | > 100 µM (inactive) | > 100 µM (inactive) |
| CC(C)(C)c1cc(C(C)(C)C)c2c(c1O)OC(=O)CS2 | 8.34 µM (inactive) | 4.44 µM (inactive) | 5.51 µM (inactive) | 3.88 µM (inactive) | 2.84 µM (inactive) | 13.4 µM (inactive) | 3.61 µM (inactive) | 4.56 µM (inactive) | 6.52 µM (inactive) | 5.9 µM (inactive) | 8.47 µM (inactive) | 4.55 µM (inactive) | 4.61 µM (inactive) | 4.56 µM (inactive) | 7.24 µM (inactive) | 3.72 µM (inactive) | 3.03 µM (inactive) | 5.98 µM (inactive) | 2.75 µM (inactive) | 5.2 µM (inactive) |
| Cc1cc(O)c(C(O)c2ccccn2)cc1O (stereo not given) | > 10 µM (inactive) | 24.5 µM (inactive) | 75.7 µM (inactive) | 16.6 µM (inactive) | 45.8 µM (inactive) | 18.7 µM (inactive) | 16.3 µM (inactive) | > 10 µM (inactive) | 21.1 µM (inactive) | 11.7 µM (inactive) | 16.5 µM (inactive) | 27.5 µM (inactive) | 13.6 µM (inactive) | 3.01 µM (inactive) | 14.1 µM (inactive) | 38.8 µM (inactive) | 21.3 µM (inactive) | 18.8 µM (inactive) | 49.2 µM (inactive) | 55.3 µM (inactive) |
| O=C(/C=C/NC(=O)OCc1ccccc1)OCc1ccccc1 | > 100 µM (inactive) | > 100 µM (inactive) | > 100 µM (inactive) | 86.7 µM (inactive) | > 100 µM (inactive) | > 100 µM (inactive) | > 100 µM (inactive) | > 100 µM (inactive) | > 100 µM (inactive) | > 100 µM (inactive) | > 100 µM (inactive) | > 100 µM (inactive) | > 100 µM (inactive) | > 100 µM (inactive) | > 100 µM (inactive) | 64.9 µM (inactive) | > 100 µM (inactive) | > 100 µM (inactive) | > 100 µM (inactive) | > 100 µM (inactive) |
| CN(C)CCCNc1ccc2nnn3c4ccc([N+](=O)[O-])cc4c(=O)c1c23 | 0.403 µM (active) | 0.986 µM (active) | 1.14 µM (inactive) | 1.13 µM (inactive) | 3.81 µM (inactive) | 4.6 µM (inactive) | 1.12 µM (active) | 11.4 µM (inactive) | 0.45 µM (active) | 1.73 µM (inactive) | 0.641 µM (active) | 0.685 µM (active) | 0.21 µM (active) | 0.617 µM (active) | 1.28 µM (inactive) | 2.13 µM (inactive) | 2.23 µM (inactive) | 0.597 µM (active) | 0.313 µM (active) | 2.73 µM (inactive) |
| Cc1c(-c2cnccn2)ssc1=S [OLTIPRAZ] | 94.2 µM (inactive) | > 80.9 µM (inactive) | 56.2 µM (inactive) | 62.7 µM (inactive) | 34.5 µM (inactive) | > 100 µM (inactive) | 31.9 µM (inactive) | 67.6 µM (inactive) | > 100 µM (inactive) | > 100 µM (inactive) | 63 µM (inactive) | > 100 µM (inactive) | > 96.4 µM (inactive) | 68.9 µM (inactive) | > 100 µM (inactive) | 63.1 µM (inactive) | > 100 µM (inactive) | 72.4 µM (inactive) | > 100 µM (inactive) | 68.1 µM (inactive) |
